According to patent US20160361391A1, “REDUCTION OF TRAF1 LEVELS COMBINED WITH NUTRIENT STRESS FOR TREATING LYMPHOCYTE-RELATED CANCERS” (THE GOVERNING COUNCIL OF THE UNIVERSITY OF TORONTO, priority 2014, published 2016):

How the values were obtained:
mTORC1 = experiment: pS6K / pS6 level as marker of mTORC1 activation; type: cell-based, human; conditions: RAJI lymphoma cells
Description: Left: Levels of pS6K in RAJI control cells. Right: Levels of pS6K in RAJI shTRAF1. Upper panels show pS6K, lower panels show GAPDH to control for equal loading. B. Schematic showing link between nutrient stress, mTORC1 and pS6. C. Left: Representative flow cytometry analysis of TRAF1 and phospho-S6 expression in Raji shCTRL and Raji shTraf1 cells. […] FMO is fluorescence minus one control stain. Right: Correlation plot of TRAF1 versus phospho-S6 expression in lymphoma and CLL cell lines (gated on live cells). All flow cytometry is based on gating on live cells (using live/dead staining marker).
In an effort to understand the mechanism of synergy between lowering TRAF1 levels and increased sensitivity to Erwinase, the activity of mTORC1, a key sensor of the nutrient state of the cells, was examined. Nutrient stress inhibits the activation of mTORC1, a key regulator of proliferation, metabolism and cell survival.^35 PhosphoS6K (pS6K), a downstream target of mTORC1, can be used as a marker of mTORC1 activation. […] However, unexpectedly, TRAF1 knockdown cells had lower basal level of pS6K prior to treatment, perhaps explaining the synergistic effect of TRAF1 knockdown with Erwinase treatment (FIG. 11A—compare right to left western blots). […] Further, a correlation between the level of TRAF1 in the cell and the activity of mTORC1 as measured by pS6 levels was shown (FIG. 11C).

Erk and NF-κB activation = experiment: Flow cytometry for pERK and phospho P65 subunit of NFkB; type: cell-based, human; conditions: RAJI knockdown cells versus control sample
Description: (A) Whole cell extracts from RAJI cells treated with control shRNA (shCTRL) or TRAF2 shRNA (shTRAF2) were immunoblotted for TRAF2 or as a loading control, GAPDH. (B) Annexin V staining of RAJI after Erwinase treatment (1 IU/ml; 24 hrs) in shCTRL, shTRAF1 or shTRAF2 cells.
TRAF2 knockdown also decreases RAJI survival in the presence of Erwinase (FIG. 14). […] On the Y axis, is indicated knockdown of TRAF2, PKN1, TRAF1 or control sample. The vertical dashed line indicates the peak level of expression in the control sample for comparison with the knockdown cells.

shTRAF1: shRNA designed to knockdown expression of TRAF1, sequence CGTGTGTTTGAGAACATTG (Open Biosystems TRC library)
level of pS6K / pS6 (mTORC1): levels of pS6 are lower
constitutive Erk and NF-κB activation (Erk and NF-κB activation): reduces constitutive Erk and NF-κB activation
